Laboratory results taken from US10071103B2, “Treatments for resistant acne” (VYOME BIOSCIENCES PVT. LTD., priority 2014, dated 2018).
Values after ≈ are worked out from the molar mass of the structure shown.

Legend:
IL-8 = assay: P. acnes-induced IL-8 release in THP-1 cells (ELISA); assay type: cell-based; conditions: THP-1 cells, Table 71
Description: (§1) Method: Preparation of Stimulant for Inflammation: P. acnes culture suspension was prepared in PBS and the cell number in the suspension was adjusted to approximately 5×10^8 CFU/ml by measuring the cell density using a Densimat. The bacterial suspension was then heat killed at 80° C. for 30 min and stored at −80° C. until further use.
(§2) Cells were seeded in a 96-well format (2×10^5 THP-1 cells per well) in media containing 10% FBS. The cells were stimulated to induce inflammatory cytokines using 3 McFarland equivalent heat-killed P. acnes. Cells in control wells were treated with PBS. One hour after induction with P. acnes, test agents were added to the induced cells at appropriate concentrations to be tested (compound 91 at 25 μg/ml). The plates were incubated at 37° C. for 24 hours. After 24 h, the plates were centrifuged to pellet the cells and the supernatants were collected. The cell culture supernatants thus obtained were analyzed for levels of cytokines (IL-1α, IL-1β, IL-6 and IL-8) by ELISA using R&D Systems kits for individual cytokines following the manufacturer's instructions.
as §1, with “Preparation” for “Method: Preparation”, “stimulant” for “Stimulant”, “inflammation:” for “Inflammation:”
(§3) Cells were seeded in a 96-well format (2×10^5 THP-1 cells per well) in media containing 10% FBS. The cells were stimulated to induce inflammatory cytokines using 3 McFarland equivalent heat-killed P. acnes. Cells in control wells were treated with PBS. One hour after induction with P. acnes, test agents were added to the induced cells at appropriate concentrations (Besifloxacin at 10 and 30 μg/ml; Adapalene at 0.04 and 0.4 μg/ml). The plates were incubated at 37° C. for 24 hours. After 24 h, the plates were centrifuged to pellet the cells and the supernatants were collected. The cell culture supernatants thus obtained were analyzed for cytokine levels (IL-6 and IL-8) by ELISA using R&D Systems kits for individual cytokines following the manufacturer's instructions.

IL-6 = assay: P. acnes-induced IL-6 release in THP-1 cells (ELISA); assay type: cell-based; conditions: for Expression of Cytokines IL-6 (pg/ml) Mean: THP-1 cells, Table 71; for Effect on P. acnes-induced IL-6 levels (in words): Example 61, besifloxacin 10, 30 μg/ml, adapalene 0.04, 0.4 μg/ml
Description: as §1, §2
as §1, with “Preparation” for “Method: Preparation”, “stimulant” for “Stimulant”, “inflammation:” for “Inflammation:”
as §3

P. acnes MTCC 1951 [1] = assay type: cell-based, Propionibacterium acnes
Description: 3 to 4 Petri plates containing 48 h P. acnes culture was suspended in sterile Phosphate buffer saline, PBS (pH 7.2) and turbidity was adjusted to optical density of 1 at 600 nm (10^9 cells/ml). 50 ml of this culture suspension was centrifuged at 4000 rpm for 40 min. The supernatant was discarded and pellet resuspended in 250 μl of sterile PBS. 50 μl of these cell suspensions (10^10 cells) was spread over the plates containing various concentrations of antibiotics (around MIC range). Plates were incubated at 37° C. for 48 h and the lowest concentration of the drug that allowed no growth was taken as its MPC.

P. acnes MTCC 1951 [2] = assay: MIC by micro broth dilution (Alamar blue), clindamycin-susceptible P. acnes; assay type: cell-based, Propionibacterium acnes; conditions: Cutibacterium acnes, MTCC1951; Table 7; against P. acnes; read-out: MIC
Description: The plates were incubated at 37° C. for 48 h under anaerobic condition for P. acnes and 37° C. for 24 h for S. aureus The plates were read under Bio-Rad plate reader at 595 nm for optical density to generate the dose-response curves. The MIC of the test compound was recorded by addition of Alamar blue dye.
P. acnes (MTCC 3297, MTCC 1951& CCARM 9010) are cultured in Brain Heart Infusion (BHI) Broth at 37° C. for 48-72 h under anaerobic condition. The test compounds/formulations are initially diluted with suitable solvent and further diluted with BHI broth to get the required concentrations. Samples (100 μl) of different concentrations (prepared by serial dilution) are added to 96-well plate. To the wells, 100 μl of P. acnes BHI broth culture is added [culture turbidity adjusted against 0.5 McFarland standard (approx 1.5×10^8), and further diluted 100-fold with sterile BHI broth]. In addition Growth Control and Sterility Control are created using 100 μl each of P. acnes BHI broth culture and plain BHI broth, respectively.
Plates are incubated at 37° C. for 48-72 hrs under anaerobic condition. The plate is read under Bio-Rad plate reader @ 595 nm for optical density to generate the dose-response curves. The MIC of the test compound is recorded by addition of Alamar blue dye.
BHI broth and BHI agar media were prepared as per the manufacturer's instruction and autoclaved at 121° C. for 15 minutes. […] For MIC determination testing, gels are dissolved in the solvent and further diluted with BHI broth. Then, 96 wells plate are filled with 100 μl of BHI broth containing drug with different concentration to get the final concentrations of 0.06, 0.13, 0.25, 0.5, 1 and 2 μg/ml in different lanes (lane 1 to lane 6). Remaining lanes of the 96 well plate are used as growth control and sterility control. Finally, P. acnes culture suspension (approx 1.5×10^6) is added in all the wells except sterility control wells and plate is incubated at 37° C. for 48-72 h under anaerobic condition. At the end of 72 h, Alamar blue solution (20 μl) is added into the wells and incubated at 37° C. for 2 h. Plate is visualized for bacterial inhibitions and MIC values of the tested samples are determined. […]

[3] = system: P. acnes clinical isolates; assay: MIC of P. acnes isolated from acne patients (clinical isolates);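 also: anaerobic 96-well plate assay at 37 °C over 72 h, with Alamar blue dye as read-out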;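 as to MIC: MIC in µg/mL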
Description: P. acnes were cultured in Brain Heart Infusion Agar (BHIA) at 37° C. for 48 hours under anaerobic condition. […] For bacterial inoculum, P. acnes culture turbidity was adjusted to 0.5 McFarland standard (approximately 1.5×10^8) and further diluted (100 times with sterile BHI broth). Diluted P. acnes suspension (100 μl) was added to each well except sterility control wells (column 12 of 96 well plate). Inoculated plates were incubated at 37° C. for 72 hours under anaerobic condition. After incubation, MIC was determined by adding Alamar blue dye.

[4] = Cells + P. acnes + Adapalene 0.04 μg/ml
[5] = Cells + P. acnes + Adapalene 0.4 μg/ml
[6] = Cutibacterium acnes, P. acnes strain V5-2, clinical isolate susceptible to clindamycin and erythromycin
[7] = Cutibacterium acnes, P. acnes strain V5-5, clinical isolate susceptible to clindamycin and erythromycin
[8] = Cutibacterium acnes, P. acnes strain V5-7, clinical isolate susceptible to clindamycin and erythromycin
[9] = Cutibacterium acnes, P. acnes strain V6-5, clinical isolate susceptible to clindamycin and erythromycin
[10] = Cutibacterium acnes, P. acnes strain V6-6, clinical isolate susceptible to clindamycin and erythromycin
[11] = Cutibacterium acnes, P. acnes strain V6-7, clinical isolate susceptible to clindamycin and erythromycin
[12] = Cutibacterium acnes, P. acnes strain V7-3, clinical isolate susceptible to clindamycin and erythromycin
[13] = Cutibacterium acnes, P. acnes strain V7-4, clinical isolate susceptible to clindamycin and erythromycin
[14] = Cutibacterium acnes, P. acnes strain V7-14, clinical isolate susceptible to clindamycin and erythromycin
[15] = Cutibacterium acnes, P. acnes strain V9-6E, clinical isolate susceptible to clindamycin and erythromycin
[16] = Cutibacterium acnes, P. acnes strain V13-3E, clinical isolate susceptible to clindamycin and erythromycin
[17] = Cutibacterium acnes, P. acnes strain V14-2E, clinical isolate susceptible to clindamycin and erythromycin
[18] = Cutibacterium acnes, P. acnes strain V17-3E, clinical isolate susceptible to clindamycin and erythromycin

Structure (SMILES) | Effect on P. acnes-induced IL-6 levels (in words) (IL-6) | Susceptibility of P. acnes isolated from volunteers V3 and V21 (in words) [3] | Susceptibility of clindamycin-nonresponder clinical isolates (in words) [3] | Susceptibility of clinical isolates susceptible to clindamycin and erythromycin (in words) [3] | MIC [3, 6] | MIC [3, 7] | MIC [3, 8] | MIC [3, 9] | MIC [3, 10] | MIC [3, 11] | MIC [3, 12] | MIC [3, 13] | MIC [3, 14] | MIC [3, 15] | MIC [3, 16] | MIC [3, 17] | MIC [3, 18] | further results
COc1ccc(-c2ccc3cc(C(=O)O)ccc3c2)cc1C12CC3CC(CC(C3)C1)C2 [Adapalene, adapalene] | impart individual anti-inflammatory effects | – | – | – | – | – | – | – | – | – | – | – | – | – | – | – | – | Expression of Cytokines IL-8 (pg/ml) Mean (IL-8; [4]): 2536.76 pg/mL; Expression of Cytokines IL-8 (pg/ml) Mean (IL-8; [5]): 2579.87 pg/mL; Expression of Cytokines IL-6 (pg/ml) Mean (IL-6; [4]): 308.82 pg/mL; Expression of Cytokines IL-6 (pg/ml) Mean (IL-6; [5]): 162.76 pg/mL
N[C@@H]1CCCCN(c2c(F)cc3c(=O)c(C(=O)O)cn(C4CC4)c3c2Cl)C1 [Besifloxacin] | concentration-dependent inhibitory effect | susceptible | susceptible | susceptible | 0.5 mg/L | 0.5 mg/L | 0.5 mg/L | 0.5 mg/L | 0.5 mg/L | 0.5 mg/L | 0.5 mg/L | 0.5 mg/L | 0.5 mg/L | 0.5 mg/L | 0.5 mg/L | 0.5 mg/L | 0.5 mg/L | MPC (P. acnes MTCC 1951 [1]; P. acnes, 10^10 cells inoculum): 2 µg/mL; MPC/MIC (P. acnes MTCC 1951 [1]; ratio against P. acnes): 4; MIC (P. acnes MTCC 1951 [2]): 0.5 mg/L (≈ 1.27 µM); MIC ([3]; Cutibacterium acnes): 0.25 mg/L; MIC ([3]; P. acnes strain V2-9, clinical isolate susceptible to clindamycin and erythromycin): 0.25 mg/L; MIC ([3]; P. acnes strain V3-9, clinical isolate susceptible to clindamycin and erythromycin): 0.25 mg/L; MIC ([3]; P. acnes strain V3-10, clinical isolate susceptible to clindamycin and erythromycin): 0.25 mg/L; MIC ([3]; P. acnes strain V4-6, clinical isolate susceptible to clindamycin and erythromycin): 0.25 mg/L; MIC ([3]; P. acnes strain V4-8, clinical isolate susceptible to clindamycin and erythromycin): 0.25 mg/L; MIC ([3]; P. acnes strain V4-13, clinical isolate susceptible to clindamycin and erythromycin): 0.25 mg/L; MIC ([3]; P. acnes strain V12-2E, clinical isolate susceptible to clindamycin and erythromycin): 0.25 mg/L; MIC ([3]; P. acnes strain V15B-1E, clinical isolate susceptible to clindamycin and erythromycin): 0.25 mg/L; MIC ([3]; P. acnes strain V18-4E, clinical isolate susceptible to clindamycin and erythromycin): 0.25 mg/L; MIC ([3]; P. acnes strain V19-2E, clinical isolate susceptible to clindamycin and erythromycin): 0.25 mg/L; MIC ([3]; P. acnes strain V20-5E, clinical isolate susceptible to clindamycin and erythromycin): 0.25 mg/L
CC[C@H]1OC(=O)[C@H](C)[C@@H](O[C@H]2C[C@@](C)(OC)[C@@H](O)[C@H](C)O2)[C@H](C)[C@@H](O[C@@H]2O[C@H](C)C[C@H](N(C)C)[C@H]2O)[C@](C)(O)C[C@@H](C)C(=O)[C@H](C)[C@@H](O)[C@]1(C)O [Erythromycin, erythromycin] | – | resistance | wide variation in sensitivity | susceptible | < 0.03 mg/L | < 0.03 mg/L | < 0.03 mg/L | < 0.03 mg/L | < 0.03 mg/L | < 0.03 mg/L | < 0.03 mg/L | < 0.03 mg/L | < 0.03 mg/L | < 0.09 mg/L | < 0.09 mg/L | < 0.09 mg/L | 0.78 mg/L | MIC ([3]; Cutibacterium acnes, P. acnes strain V2-9, clinical isolate susceptible to clindamycin and erythromycin): < 0.03 mg/L; MIC ([3]; Cutibacterium acnes, P. acnes strain V2-10, clinical isolate susceptible to clindamycin and erythromycin): < 0.03 mg/L; MIC ([3]; Cutibacterium acnes, P. acnes strain V3-9, clinical isolate susceptible to clindamycin and erythromycin): < 0.03 mg/L; MIC ([3]; Cutibacterium acnes, P. acnes strain V3-10, clinical isolate susceptible to clindamycin and erythromycin): < 0.03 mg/L; MIC ([3]; Cutibacterium acnes, P. acnes strain V4-6, clinical isolate susceptible to clindamycin and erythromycin): < 0.03 mg/L; MIC ([3]; Cutibacterium acnes, P. acnes strain V4-8, clinical isolate susceptible to clindamycin and erythromycin): < 0.03 mg/L; MIC ([3]; Cutibacterium acnes, P. acnes strain V4-13, clinical isolate susceptible to clindamycin and erythromycin): < 0.03 mg/L; MIC ([3]; Cutibacterium acnes, P. acnes strain V12-2E, clinical isolate susceptible to clindamycin and erythromycin): < 0.09 mg/L; MIC ([3]; Cutibacterium acnes, P. acnes strain V15B-1E, clinical isolate susceptible to clindamycin and erythromycin): 0.19 mg/L; MIC ([3]; Cutibacterium acnes, P. acnes strain V18-4E, clinical isolate susceptible to clindamycin and erythromycin): 0.19 mg/L; MIC ([3]; Cutibacterium acnes, P. acnes strain V19-2E, clinical isolate susceptible to clindamycin and erythromycin): < 0.09 mg/L; MIC ([3]; Cutibacterium acnes, P. acnes strain V20-5E, clinical isolate susceptible to clindamycin and erythromycin): < 0.09 mg/L
